Test results as given in US5109024A, “Polyamine derivatives as antineoplastic agents” (Merrell Dow Pharmaceuticals Inc., priority 1991, dated 1992).
Structures can show the parent of a compound that is named as a salt. Where two headings read alike, the source gives them in different places.

Legend:
[1] = system: L1210 leukemia; experiment: animal or person; format: in vivo, mice (BDFl male); conditions: Mus musculus, L1210, ip, 10 mg/Kg/day, read-out: % T/C (mean survival time treated/mean survival time control ×100)
Protocol: The following study of the antitumor activity of the compounds of formula (I) against L1210 leukemia illustrates this aspect of the present invention.
Groups of 6 mice (BDFl male) were inoculated i.p. with 10^5 L1210 leukemia cells on day 0. Test compounds or vehicle (Control group) were administered at the indicated doses starting on day 1 and continuing through day 5 or 9. Relative survival time was determined and expressed as % T/C (mean survival time treated/mean survival time control ×100). Presence or absence of delayed toxicity was determined by an examination o the animal's external appearance and behavior during the study. For example, an emaciated condition is a key indication of delayed toxicity in these studies.

[2] = system: L1210 leukemia; conditions: 6.25 mg/Kg × 4 doses per day, days 3 thru 7, n=6, Edwards et al., cited from earlier work
[3] = system: 3LL (Lewis lung) carcinoma cells; experiment: Experimental Murine Lung Metastasis (3LL Lewis lung carcinoma cells injected into footpad); format: in vivo, C57BL/6 mice
Protocol: C57BL/6 mice were injected into the footpad on day 0 with 3LL (Lewis lung) carcinoma cells (1×10^6) so as to induce lung metastasis. Lung metastatic foci were determined as described by Sunkara et al. [J.Biological Response Modifiers 8, 170 (1989)]. Briefly, injected animals were randomly allocated to one of two treatment groups, 6 animals per group, and test compound or vehicle (Control) was administered i.p. at the doses and times indicated in Table 4. Lung metastatic foci were determined on day 18.

[4] = system: MCA-38 colon adenocarcinoma cells; experiment: Experimental Murine Liver Metastasis (MCA-38 colon adenocarcinoma cells injected intrasplenically); format: in vivo, C57BL/6 mice; conditions: i.p., day 14; for Liver Metastasis No. foci ± S.E.: n = 6, p < 0.001, control 220.6 ± 22.2
Protocol: C57BL/6 mice were injected intrasplenically on day 0 with MCA-38 colon adenocarcinoma cells (1×10^5) so as to induce hepatic metastasis. Liver metastatic foci were determined as described by Bowlin et al. [Cancer Res. 50, 5460 (1990)]. Briefly, injected animals were randomly allocated to one of three treatment groups, 6 animals per group, and test compound or vehicle (Control) was administered i.p. at the doses and times indicated in Table 3. Liver metastatic foci were determined on day 14.

[5] = system: L1210 leukemia; experiment: Curative Effect Against Advanced L1210 Leukemia (survival, cures); format: in vivo, mice (BDFl male); conditions: for Cured (mice surviving beyond day 45) / Survival in days (Mean ± S.E.): n=5
Protocol: In an additional study, groups of 5 mice (BDFl male) were inoculated i.p. with 10^5 L1210 leukemia cells on day 0. N,N'-bis[3-(ethylamino)propyl]-1,7-diaminoheptane or vehicle (Control group) were administered at the indicated doses and on the indicated days. […] In a similar study, N,N'-bis[3-(amino)propyl]-1,8-diaminooctane, administered at a dose of […] on days 3 through 7, provided a %T/C of 350 but no cures in 6 animals [Edwards et al., J. Med. Chem. 33, 1369 (1990), See Table II infra].

[6] = 5 mg/Kg × 4 doses per day, days 3, 4, 5
[7] = 5 mg/Kg × 4 doses per day, days 3, 4
[8] = 10 mg/Kg × 4 doses per day, days 3, 4

For `NCCCNCCCCCCCCNCCCN` [Compound 26547, N,N'-bis[3-(amino)propyl]-1,8-diaminooctane], the response vs control in vivo at 10 mg/kg ([1]; days 1-9) is given as 171%, the “% T/C” value ([2]; J. Med. Chem. 33, 1369 (1990)) is given as 350% and the Cured ([2]; J. Med. Chem. 33, 1369 (1990)) is given as 0/6. For the same compound, the Cured ([2]; J. Med. Chem. 33, 1369 (1990), listed as N,N'-bis[3-(amino)propyl]-1,8-diaminooctane) was “no cures” and the Delayed toxicity [2] was “exhibited delayed toxicity”.
In the case of `CNCCCNCCCCCCCCNCCCNC` [Compound 27259, N,N'-Bis(3-(methylamino)propyl)-1,8-octanediamine tetrahydrochloride], the response vs control in vivo at 10 mg/kg ([1]; days 1-9) is reported as 172%.
`CCNCCCNCCCCCCCCNCCCNCC` [Compound 27393, N,N'-Bis(3-(ethylamino)propyl)-1,8-octanediamine tetrahydrochloride] gave a response vs control in vivo at 10 mg/kg ([1]; days 1-9) of 112%.
`CNCCCNCCCCCCCNCCCNC` [Compound 28249, N,N'-bis[3-(methylamino)propyl]-1,7-diaminoheptane] showed a response vs control in vivo at 10 mg/kg ([1]; days 1-5) of 110%.
With `CCNCCCNCCCCCCCNCCCNCC` [Compound 28314, N,N'-Bis[3-(ethylamino)propyl]-1,7-heptanediamine] the response vs control in vivo at 10 mg/kg ([1]; days 1-5) was 200%, the “Lung Metastasis % Inhibition” value ([3]; days 1-5, 10 mg/Kg, i.p., day 18) was 100% and the “Lung Metastasis No. foci ± S.E.” value ([3]; days 1-5, 10 mg/Kg, i.p., day 18, n = 6, control 21.3 ± 11.5) was 0 foci. The “antimetastatic effect in inhibiting lung metastasis” value ([3]; results as presented in Table 4) was “antimetastatic effect”, the “Liver Metastasis % Inhibition” value ([4]; days 1-5, 5 mg/Kg) was 87% and the “Liver Metastasis No. foci ± S.E.” value ([4]; days 1-5, 5 mg/Kg) was 29.2 ± 7.7 foci. The “Liver Metastasis % Inhibition” value ([4]; days 3-8, 5 mg/Kg) was 72%, the “Liver Metastasis No. foci ± S.E.” value ([4]; days 3-8, 5 mg/Kg) was 62.3 ± 17.5 foci and the “Cured (mice surviving beyond day 45)” value [5, 6] was 5/5. For the same compound, the “Survival in days (Mean ± S.E.)” value [5, 6] was over 45 days, the “Cured (mice surviving beyond day 45)” value [5, 7] was 0/5 and the “Survival in days (Mean ± S.E.)” value [5, 7] was 16.0 ± 4.0 days. For the same compound, the “Cured (mice surviving beyond day 45)” value [5, 8] was 5/5, the “Survival in days (Mean ± S.E.)” value [5, 8] was over 45 days and the “Curative effect against L1210 leukemia in vivo” value ([5]; at 20 and 40 mg/Kg/day) was “effective in providing a curative effect”.
Compound `CC(N)CCNCCCCCCCNCCC(C)N` (centres unmarked) [Compound 28516, N,N'-bis[3-(amino)butyl]-1,7-diaminoheptane, reference compound] has a response vs control in vivo at 10 mg/kg ([1]; days 1-5) of 200%.
In the case of `CNCC(C)CNCCCCCCCNCC(C)CNC` (centres unmarked) [Compound 28600, N,N'-bis[3-(methylamino)-2-(methyl)propyl]-1,7-diaminoheptane], the response vs control in vivo at 10 mg/kg ([1]; days 1-5) is reported as 132%.
With `CNC(C)CCNCCCCCCCNCCC(C)NC` (centres unmarked) [Compound 101060, N,N'-Bis[3-(methylamino)butyl]-1,7-diaminoheptane tetrahydrochloride] the response vs control in vivo at 10 mg/kg ([1]; days 1-5) was 180%.
